Measurements reported in paper PMC6005460, “Discovery of a novel potent peptide agonist to adiponectin receptor 1” (PLoS ONE, 2018).
Values after ≈ are worked out from the molar mass of the structure shown. Each block holds one molecule with its values, some of them ahead of it. Where a SMILES comes first, the peptide text is derived from it. Where no end group is shown, it is not given here. [ ]: non-standard residue; d: D form. Nva = CCC[C@H](N)C(=O)O

Legend:
AdipoR1-Δ88 = target: T1, AdipoR1-Δ88 (Homo sapiens, UniProt Q96A54); test: Surface plasmon resonance binding to immobilized AdipoR1-Δ88; conditions: for SPR screening of designed peptides, selection: Biacore T-200, selected versus ADP355 by concentration-dependent signal increase, dissociation rate and estimated Kd, 25 candidate peptides
T1 construct: made in house; host or cells: Sf9 insect cells (Bac-to-Bac baculovirus)
T1 sequence (Q96A54 89-375 limits assumed): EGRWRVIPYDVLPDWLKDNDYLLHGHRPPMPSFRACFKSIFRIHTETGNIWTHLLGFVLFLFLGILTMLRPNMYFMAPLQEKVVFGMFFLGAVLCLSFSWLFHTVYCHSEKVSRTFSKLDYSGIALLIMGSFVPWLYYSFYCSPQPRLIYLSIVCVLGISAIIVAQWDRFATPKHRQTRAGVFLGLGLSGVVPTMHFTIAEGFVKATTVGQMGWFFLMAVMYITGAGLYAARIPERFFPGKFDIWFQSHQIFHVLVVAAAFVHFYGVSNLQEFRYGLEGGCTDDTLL
Procedure: DNA gene fragment encoding AdipoR1 fused to an N-terminal flag tag was synthesized after codon optimization for insect cell expression (Integrated DNA Technologies). Full length AdipoR1 and AdipoR1-Δ88 were expressed in SF9 cell line using Bac-to-Bac Baculovirus system and purified following the procedure described by T. Tanabe et. al.. Briefly, 1 L SF9 cells infected with amplified baculovirus were cultured in SF-900 III SFM media (Thermo Fisher Scientific) for 3 days at 27°C. Harvested cells were disrupted by dounce homogenization, followed by centrifugation at 30,000 rpm for 2 hours. Collected raw membrane were washed with HEPES buffer and stored in -80°C after flash-freezing. Membranes were solubilized with 1% DDM (Anatrace) and recombinant AdipoR1-Δ88 was purified by using anti-flag tag antibody magnetic beads (Sigma). Eluted AdipoR1-Δ88 by flag peptide (Sigma) was further purified in 20 mM HEPES (pH7.4), 150 mM NaCl, 10% glycerol, 0.025% DDM, and 0.0001% CHS by Superdex 200 (GE Healthcare). The amount of purified AdipoR1-Δ88 was estimated by using Bradford staining.
In order to screen peptide library against AdipoR1, purified AdipoR1-Δ88 was immobilized onto S-series CM5 chip (GE Healthcare Life Science). Since AdipoR1-Δ88 was solubilized with a detergent-containing buffer solution, pH scouting solutions with various pH from 3.5 to 5.5 were prepared with the same detergent solution, 0.025% DDM and 0.0001% cholesteryl-hemi-succinate (CHS, Anatrace). At pH 5, AdipoR1-Δ88 was immobilized at around 4000 response unit using amine coupling method though EDC/NHS. After enough stabilization with running buffer consisting of 20 mM HEPES (pH7.4), 150 mM NaCl, 10% glycerol, 0.025% DDM, and 0.0001% CHS, serial concentrations from 1 to 100 μM were injected into reference and sample cells with 60-second contact time, 200-second dissociation time, and 30 μl/min flow rate at 4°C. The resulting sensorgrams were double-blanked by reference cell and buffer injection.

[1] = tested on: AdipoR1-mediated AMPK activation (pAMPK Thr172) in differentiated C2C12 myotubes; test: AMPK activation in differentiated C2C12 myotubes (Western blot); format: cell-based, Mouse; conditions: differentiated C2C12 myotubes, 0.8, 4 and 20 μM, in words
Procedure: (§1) Mouse C2C12 myoblasts (American Type Culture Collection) were maintained in Dulbecco’s modified Eagle’s medium (DMEM) supplemented with 10% FBS. C2C12 myotube was obtained by culturing myoblasts in DMEM containing 2% horse serum for at least 5 days with daily media change. On the fifth day, differentiation of cells could be confirmed by multinucleated contracted myotubes. C2C12 myotubes were then treated with selected peptide candidates at indicated concentrations for 30 minutes. As a positive control, 2 μg/ml recombinant human globular adiponectin and indicated concentrations of ADP355 were used.
(§2) Cell lysates were subjected to SDS-PAGE and western blot analysis. Briefly, cells were lysed with protein lysis buffer (RIPA, Thermo) followed by heat denaturation. Five micrograms of whole cell proteins were applied to SDS-PAGE. After electrophoresis, the proteins were transferred onto PVDF membrane, followed by membrane blocking in TBS-T buffer containing 5% non-fat dry milk for 1 hour at room temperature. The membrane was probed with the following different primary antibodies: anti-phosphorylated-AMPK (Thr172) (Cell Signaling), anti-tAMPK (Cell Signaling), anti-pACC, and anti-GAPDH (Santa-Cruz). […] Signals from Western blot were quantified by using Image Lab Software 6.0 (Bio-Rad).

AdipoRs = conditions: previous studies; cited from earlier work
[2] = tested on: acetyl Co-A carboxylase (ACC) phosphorylation in differentiated C2C12 myotubes; test: ACC phosphorylation in differentiated C2C12 myotubes (Western blot); format: cell-based, Mouse; conditions: PEGylated BHD1028, Western blot, in words
Procedure: as §1, §2

Solubility of peptides = format: physicochemical
[3] = target: T2, AdipoR1-Δ88 (adiponectin receptor 1 lacking the N-terminal 88 residues) (human, UniProt Q96A54 89-375); test: SPR; AdipoR1-Δ88 immobilised on CM5 chip by amine coupling at pH 5 (around 4000 RU); peptides 1 to 100 μM injected, 60 s contact, 200 s dissociation, 30 μl/min, 4°C; 20 mM HEPES pH 7.4, 150 mM NaCl, 10% glycerol, 0.025% DDM, 0.0001% CHS; Kd from saturation curves of responses at equilibrium; conditions: both partners purified
T2 construct: Adiponectin receptor 1 (AdipoR1), human; N-terminal 88 residues deleted; gene synthesised, codon-optimised for insect cells; Kept in 0.025% DDM and 0.0001% CHS; The functional rows were done on mouse C2C12 or human HepG2 cells with their own AdipoR1; m1 stands there for AdipoR1; also called AdipR1-Δ88; source: SF9 cells (Bac-to-Bac baculovirus), solubilised with 1% DDM, purified (anti-flag …)
T2 sequence (looked up): T1 sequence (Q96A54 89-375 limits assumed)

SPR screening of designed peptides, selection (AdipoR1-Δ88): preliminarily selected
Molecule: CC[C@H](C)[C@H](NC(=O)[C@H](CC(N)=O)NC(=O)[C@@H]1CCCN1C(=O)[C@H](Cc1c[nH]cn1)NC(=O)[C@H](Cc1ccc(O)cc1)NC(=O)[C@H](C)NC(=O)[C@H](Cc1ccccc1)NC(=O)[C@H](Cc1ccc(O)cc1)NC(=O)[C@@H](N)Cc1c[nH]c2ccccc12)C(=O)N1CCC[C@H]1C(=O)NCC(=O)N[C@@H](CC(C)C)C(=O)N[C@@H](Cc1c[nH]c2ccccc12)C(=O)N[C@@H](Cc1ccc(O)cc1)C(=O)N[C@@H](Cc1ccccc1)C(=O)O [BHD43] (H-WYFAYHPNIPGLWYF-OH)
AMPK activation [1]: activated AMPK in a concentration-dependent manner

Kd (AdipoR1-Δ88; SPR, AdipoR1-Δ88 amine-coupled on CM5 chip, 1 to 100 μM peptide, 4°C, 20 mM HEPES pH7.4, 0.025% DDM, 0.0001% CHS, from saturation curves with responses at equilibrium state): > 100 µM
Molecule: CCC[C@H](NC(=O)[C@@H]1CCCN1C(=O)[C@@H](NC(=O)[C@H](N)CC(N)=O)[C@@H](C)CC)C(=O)N[C@@H](CC(C)C)C(=O)N[C@@H](Cc1ccc(O)cc1)C(=O)N[C@H](CO)C(=O)N[C@@H](Cc1ccccc1)C(=O)N[C@@H](C)C(=O)N[C@H](CO)C(N)=O [ADP355, reference compound] (H-[dN]IP[Nva]LY[dS]FA[dS]-NH2)
SPR response (AdipoR1-Δ88; SPR, AdipoR1-Δ88 on CM5 chip, serial concentrations 1 to 100 μM, in words): very weak SPR responses except 100 μM concentration
cellular efficacy (AdipoRs): nano molar concentration

SPR screening of designed peptides, selection (AdipoR1-Δ88): preliminarily selected
Molecule: CC[C@H](C)[C@H](NC(=O)[C@H](CC(N)=O)NC(=O)[C@@H]1CCCN1C(=O)[C@H](Cc1c[nH]cn1)NC(=O)[C@H](Cc1ccc(O)cc1)NC(=O)[C@H](C)NC(=O)[C@H](Cc1ccccc1)NC(=O)[C@H](Cc1ccc(O)cc1)NC(=O)[C@@H](N)Cc1ccccc1)C(=O)N1CCC[C@H]1C(=O)NCC(=O)N[C@@H](CC(C)C)C(=O)N[C@@H](Cc1ccccc1)C(=O)N[C@@H](Cc1ccc(O)cc1)C(=O)N[C@@H](Cc1ccccc1)C(=O)O [BHD44] (H-FYFAYHPNIPGLFYF-OH)
AMPK activation [1]: activated AMPK in a concentration-dependent manner

SPR screening of designed peptides, selection (AdipoR1-Δ88): preliminarily selected
dissociation in the SPR sensorgram (AdipoR1-Δ88; among screened peptides, in words): slowest dissociation
solubility in DMSO (Solubility of peptides; DMSO): 100 mM (≈ 193 mg/mL)
solubility (Solubility of peptides; aqueous buffer, PBS buffer pH 7.4, unmodified peptide): ≤ 0.05 mM
Molecule: CC[C@H](C)[C@H](NC(=O)[C@H](CC(N)=O)NC(=O)[C@@H]1CCCN1C(=O)[C@H](Cc1c[nH]cn1)NC(=O)[C@H](Cc1ccc(O)cc1)NC(=O)[C@H](C)NC(=O)[C@H](Cc1ccccc1)NC(=O)[C@H](Cc1ccc(O)cc1)NC(=O)[C@@H](N)Cc1ccc(O)cc1)C(=O)N1CCC[C@H]1C(=O)NCC(=O)N[C@@H](CC(C)C)C(=O)N[C@@H](Cc1ccc(O)cc1)C(=O)N[C@@H](Cc1ccc(O)cc1)C(=O)N[C@@H](Cc1ccccc1)C(=O)O [BHD1028] (H-YYFAYHPNIPGLYYF-OH)

Second part, the molecule before the results:

Molecule: PEGylated BHD1028: BHD1028 N-terminally mono-PEGylated with 5000 Da polyethylene glycol ({PEG 5000 Da}-YYFAYHPNIPGLYYF)
ACC activation, concentration dependence [2]: concentration dependent
solubility after PEGylation (Solubility of peptides; modified with 5000 Da of PEG, in words): much enhanced solubility

B1: BHD1028 (peptide)
peptide: YYFAYHPNIPGLYYF
notes: designed 15-mer, adiponectin-mimetic; free N- and C-termini as printed (NH2-...-COOH); also called BHD31; source: synthetic peptide (AnyGen Ltd.)
Kd [3]: 16 µM

B2: BHD43 (peptide)
peptide: WYFAYHPNIPGLWYF
notes: designed 15-mer, adiponectin-mimetic; free N- and C-termini as printed (NH2-...-COOH); source: synthetic peptide (AnyGen Ltd.)
Kd [3]: 10 µM

B3: BHD44 (peptide)
peptide: FYFAYHPNIPGLFYF
notes: as for B2
Kd [3]: 4.3 µM
